Columns and labels:
Assay in all cases: relative viability (nuclei count vs DMSO), 5 days (fraction); higher = more cells survive
[1] = compound: Cc1cnc(CNC(=O)c2c(=O)c3ccc(N4CCCN(C)CC4)nc3n3c2sc2ccccc23)cn1 [CX-5461] + COc1cc2c(Oc3ccc(NC(=O)C4(C(=O)Nc5ccc(F)cc5)CC4)cc3F)ccnc2cc1OCCCN1CCOCC1 [Foretinib] (partner 0.25 µM)
Procedure, shortened: (§1)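 Lung cancer cell lines were pin-tool dosed in 1536-well plates on the day after seeding, with either a lone drug or a fixed anchor-drug dose plus five library-drug doses (not always all listed) in √10 steps. Nuclei were counted on 4× images after 5 days. Relative viability is the ratio of treated-well to vehicle-well nuclei counts, with each value a median of duplicate plates.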

[2] = compound: Cc1cnc(CNC(=O)c2c(=O)c3ccc(N4CCCN(C)CC4)nc3n3c2sc2ccccc23)cn1 [CX-5461] + O=C(CCCCCCC(=O)Nc1ccccc1)NO [Vorinostat] (partner 1 µM)
Procedure, shortened: as §1

[3] = compound: O=C(Nc1cc(C(F)(F)F)cc(C(F)(F)F)c1)c1cc(Cl)ccc1O [IMD-0354] + CC(=O)Nc1cccc(-n2c(=O)n(C3CC3)c(=O)c3c(Nc4ccc(I)cc4F)n(C)c(=O)c(C)c32)c1 [Trametinib] (partner 0.02 µM)
Procedure, shortened: as §1

[4] = compound: O=C(Nc1cc(C(F)(F)F)cc(C(F)(F)F)c1)c1cc(Cl)ccc1O [IMD-0354] + CC1(C)CCC(c2ccc(Cl)cc2)=C(CN2CCN(c3ccc(C(=O)NS(=O)(=O)c4ccc(N[C@H](CCN5CCOCC5)CSc5ccccc5)c(S(=O)(=O)C(F)(F)F)c4)cc3)CC2)C1 [Navitoclax] (partner 0.5 µM)
Procedure, shortened: as §1

| Cell Line | relative viability ([1]; first compound 0.01 µM) | relative viability ([1]; first compound 0.03162 µM) | relative viability ([1]; first compound 0.1 µM) | relative viability ([1]; first compound 0.3162 µM) | relative viability ([1]; first compound 1 µM) | relative viability ([2]; first compound 0.01 µM) | relative viability ([2]; first compound 0.03162 µM) | relative viability ([2]; first compound 0.1 µM) | relative viability ([2]; first compound 0.3162 µM) | relative viability ([2]; first compound 1 µM) | relative viability ([3]; first compound 0.04 µM) | relative viability ([3]; first compound 0.1265 µM) | relative viability ([3]; first compound 0.4 µM) | relative viability ([3]; first compound 1.265 µM) | relative viability ([3]; first compound 4 µM) | relative viability ([4]; first compound 0.04 µM) | relative viability ([4]; first compound 0.1265 µM) | relative viability ([4]; first compound 0.4 µM) | relative viability ([4]; first compound 1.265 µM) | relative viability ([4]; first compound 4 µM) |
| --- | --- | --- | --- | --- | --- | --- | --- | --- | --- | --- | --- | --- | --- | --- | --- | --- | --- | --- | --- | --- |
| 201T | 1.06 | 1.05 | 1.04 | 1.08 | 0.74 | 1.07 | 1.04 | 1.02 | 0.559 | 0.976 | 0.732 | 0.74 | 0.611 | 0.727 | 0.319 | 1.27 | 1.25 | 0.77 | 1 | 0.752 |
| A549 | 1.01 | 0.883 | 0.948 | 0.987 | 0.385 | – | – | – | – | – | – | – | – | – | – | 1.37 | 1.19 | 0.54 | 0.0726 | 0.0514 |
| A-427 | 1.12 | 1.2 | 1.13 | – | 1.04 | 0.879 | 0.884 | 0.872 | 0.805 | 0.548 | 0.878 | 0.73 | 0.636 | 0.176 | 0.162 | 0.989 | 0.983 | 0.654 | 0.546 | 0.115 |
| ABC-1 | 0.909 | 0.91 | 0.651 | – | 0.585 | 1.2 | – | 1.02 | 0.442 | 0.394 | – | – | – | – | – | – | – | – | – | – |
| BEN | 0.781 | 0.606 | 0.739 | 0.525 | 0.636 | 0.596 | 0.588 | 0.514 | 0.536 | 0.608 | 1.07 | 0.853 | 0.814 | 0.472 | 0.401 | 0.0569 | 0.0541 | 0.0659 | 0.0403 | 0.0444 |
| CAL-12T | 1.03 | 1.08 | 0.966 | 0.945 | 0.741 | 0.833 | 0.951 | 0.74 | 0.577 | 0.337 | 0.333 | 0.308 | 0.403 | 0.191 | 0.211 | 1.33 | 1.08 | 0.629 | 0.358 | 0.156 |
| COR-L23 | 0.997 | 1.09 | 0.881 | 0.774 | 0.597 | 0.612 | 0.436 | 0.451 | 0.389 | 0.218 | 0.64 | 0.576 | 0.458 | 0.118 | 0.163 | 0.891 | 0.961 | 0.375 | 0.0982 | 0.147 |
| COR-L 105 | 1.13 | 1.05 | 1.11 | 0.813 | 0.549 | 0.929 | 0.872 | 0.728 | 0.71 | 0.599 | 0.435 | 0.448 | 0.455 | 0.342 | 0.318 | 0.731 | 0.684 | 0.644 | 0.374 | 0.269 |
| Calu-6 | 0.837 | 0.925 | 0.807 | 0.844 | 0.698 | – | – | – | – | – | – | – | – | – | – | 0.94 | 0.903 | 0.355 | 0.122 | 0.104 |
| ChaGo-K-1 | 0.927 | 0.981 | 0.917 | 0.597 | 0.883 | 0.786 | 0.81 | 0.699 | 0.262 | 0.513 | 0.918 | 0.872 | 0.68 | 0.718 | 0.233 | 1.43 | 1.48 | 0.672 | 0.296 | 0.327 |
| EBC-1 | 0.108 | 0.085 | 0.11 | 0.112 | 0.0969 | – | – | – | – | – | – | – | – | – | – | 0.41 | 0.374 | 0.334 | 0.144 | 0.185 |
| EKVX | 0.971 | 0.726 | 0.698 | 0.821 | 1.03 | 0.738 | 0.815 | 0.758 | 0.726 | 0.784 | 0.399 | 0.3 | – | 0.339 | 0.175 | 0.967 | 1.11 | – | 0.573 | 0.206 |
| EMC-BAC-2 | 0.988 | 1.13 | 1.06 | 0.928 | 0.885 | 0.435 | 0.138 | 0.269 | 0.203 | 0.201 | 0.918 | 0.933 | 0.584 | – | 0.3 | 1.2 | 1.17 | 0.617 | 0.977 | 0.219 |
| EPLC-272H | 0.651 | 0.681 | 0.78 | – | 0.467 | 0.47 | 0.362 | 0.362 | 0.48 | 0.458 | 0.295 | 0.271 | 0.317 | 0.268 | 0.201 | 1.45 | 1 | 0.54 | 1.06 | 0.25 |
| H3255 | 0.907 | 0.854 | 0.818 | 0.558 | 0.835 | 0.767 | 0.771 | 0.9 | – | 0.734 | 0.612 | 0.664 | 0.472 | 0.49 | 0.311 | 0.394 | 0.715 | 0.408 | 0.089 | 0.144 |
| HARA | 1.01 | 1.09 | 0.806 | – | 0.89 | 0.516 | 0.568 | 0.485 | – | 0.476 | 0.772 | 0.517 | 0.632 | 0.225 | 0.262 | 0.952 | 1.11 | 0.36 | 0.342 | 0.131 |
